Measurements published in ChEMBL document CHEMBL3400048, “N-acylated sulfonamide congeners of fosmidomycin lack any inhibitory activity against DXR” (Bioorg Med Chem Lett, 2015).
Activity calls are given as the source filed them. No cut-off for these calls is given here.

Assays:
Aspergillus fumigatus = assay: Antimicrobial activity against Aspergillus fumigatus at 64 uM; assay type: functional, organism-based
Plasmodium falciparum = assay: Antimicrobial activity against Plasmodium falciparum K1 at 64 uM; assay type: functional, organism-based
Trypanosoma cruzi = assay: Antimicrobial activity against Trypanosoma cruzi at 64 uM; assay type: functional, organism-based
[1] = target: T1, 1-deoxy-D-xylulose 5-phosphate reductoisomerase (Escherichia coli K-12) (UniProt P45568); assay: Inhibition of Escherichia coli DXR activity using DXP as substrate assessed as residual activity preincubated at 100 uM for 5 mins before substrate addition measured every 3 seconds for 180 seconds by spectrophotometric assay
T1 sequence (whole entry): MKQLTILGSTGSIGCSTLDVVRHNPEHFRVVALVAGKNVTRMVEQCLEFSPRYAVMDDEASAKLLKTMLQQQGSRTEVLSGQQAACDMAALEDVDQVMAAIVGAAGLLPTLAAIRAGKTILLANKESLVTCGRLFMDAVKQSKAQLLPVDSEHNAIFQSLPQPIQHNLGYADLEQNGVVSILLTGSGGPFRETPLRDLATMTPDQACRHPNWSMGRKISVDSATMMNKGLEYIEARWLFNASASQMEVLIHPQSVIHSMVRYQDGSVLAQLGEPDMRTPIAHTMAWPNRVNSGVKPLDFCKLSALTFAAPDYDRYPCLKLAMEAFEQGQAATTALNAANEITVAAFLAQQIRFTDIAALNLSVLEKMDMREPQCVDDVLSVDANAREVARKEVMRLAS

Trypanosoma brucei = assay: Antimicrobial activity against Trypanosoma brucei at 64 uM; assay type: functional, organism-based
MRC5 = assay: Cytotoxicity against human MRC5 cells at 64 uM; assay type: cell-based; settings: mrc5, 64 µM
Escherichia coli = assay: Antimicrobial activity against Escherichia coli at 64 uM; assay type: functional, organism-based
Candida albicans = assay: Antimicrobial activity against Candida albicans at 64 uM; assay type: functional, organism-based
Staphylococcus aureus = assay: Antimicrobial activity against Staphylococcus aureus at 64 uM; assay type: functional, organism-based
Pseudomonas aeruginosa = assay: Antimicrobial activity against Pseudomonas aeruginosa at 64 uM; assay type: functional, organism-based
Trichophyton rubrum = assay: Antimicrobial activity against Trichophyton rubrum at 64 uM; assay type: functional, organism-based
Leishmania infantum = assay: Antimicrobial activity against Leishmania infantum at 64 uM; assay type: functional, organism-based

Activity [1] [%] | Compound | Activity (Aspergillus fumigatus) | Activity (Plasmodium falciparum) | Activity (Trypanosoma cruzi) | Activity (Trypanosoma brucei) | Activity (MRC5) | Activity (Escherichia coli) | Activity (Candida albicans) | Activity (Staphylococcus aureus) | Activity (Pseudomonas aeruginosa) | Activity (Trichophyton rubrum) | Activity (Leishmania infantum)
100 | CC(=O)N(O)CCCS(=O)(=O)NC(=O)c1ccccc1 | inactive | inactive | inactive | inactive | Non-toxic | inactive | inactive | inactive | inactive | inactive | inactive
100 | CC(=O)N(O)CCCS(=O)(=O)NC(=O)CCc1ccccc1 | inactive | inactive | inactive | inactive | Non-toxic | inactive | inactive | inactive | inactive | inactive | inactive
100 | CC(=O)NS(=O)(=O)CCCN(O)C(C)=O | inactive | inactive | inactive | inactive | Non-toxic | inactive | inactive | inactive | inactive | inactive | inactive
100 | CC(=O)N(O)CCCS(=O)(=O)NC(=O)Cc1ccccc1 | inactive | inactive | inactive | inactive | Non-toxic | inactive | inactive | inactive | inactive | inactive | inactive
